Data: patent US4925835A, “Aziridinyl putrescine containing compositions and their uses in treating prostate cancer” (priority 1987, dated 1990)
Like-named read-outs stand apart in the source and are kept apart here.

Tests used:
[1] = test system: PC-3 human prostatic carcinoma cell line; assay: cells; assay type: cell-based; conditions: for Cell number as a percentage of the control mean cell number / Cell no.: 1 μM AZP; for Cell no.: mean ± SE; for activity at 1 µM / EC50: Homo sapiens, Prostatic carcinoma cell; for activity at 1 µM: 192 h
Method: FIG. 3. Effect of AZP on the growth of PC-3 cells with or without DFMO pretreatment. PC-3 cells (3×10^4) were plated in 60-mm^2 Petri dish in RPMI 1640-10% FCS and allowed to attach overnight. The following day the medium was aspirated and replaced with RPMI 1640, 10% FCS, 100 μM aminoguanidine with or without 1 mm DFMO. Forty-eight h later the medium was aspirated, the dishes were rinsed once with HBSS, and the cells were incubated with RPMI 1640-10% FCS-100 μM aminoguanidine with or without 25 μM AZP for 1 h. Following the 1-h incubation the medium was aspirated, the plates were rinsed twice with HBSS, and the incubation was continued with fresh RPMI 1640-10% FCS-100 μM aminoguanidine. At the indicated times following initial plating the cells were lifted from the plate by trypsinization and were examined for their ability to exclude trypan blue. Total cell counts were obtained with the aid of a hemocytometer, and the completeness of the removal of the cells from the dish was verified by the examination of each dish with the inverted microscope. , control; Δ, DFMO; .circle., AZP; .quadrature., DFMO+AZP. Points, means; bars, SE.
FIG. 4. Dose-effect relationship of AZP on the growth on PC-3 prostatic cancer cells. PC-3 cells (3×10^4) were plated in RPMI 1640-10% FCS in 60-mm^2 Petri dishes and allowed to attach overnight. The following day the medium was aspirated and replaced with RPMI 1640-10% FCS-100 μM aminoguanidine with or without 1 mm DFMO. Forty-eight h later the medium was aspirated, and the cells were rinsed once with HBSS and replaced with RPMI 1640-10% FCS-100 μM aminoguanidine with or without the indicated μM concentrations of AZP. After a 1-h incubation the medium was aspirated, the cells were rinsed twice with HBSS, and the incubation was continued with fresh RPMI 1640-10% FCS-100 μM aminoguanidine. Eight days following plating the cells were lifted from the plates by trypsinization and were counted with the aid of a hemocytometer and expressed as a percentage of control (100% without DFMO, 212±31×10^4; 100% with DFMO pretreatment, 219±25× 10^4 cells, respectively). , DFMO pretreated; .circle., without DFMO.
Assays of cell growth were performed by plating 3×10^4 PC-3 cells in RPMI 1640 medium with 10% FCS and allowing them to attach overnight. The following morning the medium was replaced with incubation medium consisting of RPMI 1640, 10% FCS, 100 μM aminoguanidine, 100 units/ml of penicillin, 100 μg/ml of streptomycin, and 2 mM glutamine, with or without 1 mM difluoromethylornithine. Two days later the medium was aspirated and replaced with or without 1-(4-aminobutyl) aziridine at the designated concentration usually for 1 h or for the designated length of time. Following the 1-h incubation, the medium of all groups was aspirated and the dishes were rinsed with HBSS and replaced with fresh incubation medium. Either daily or 8 days following plating, the Petri dishes were rinsed with HBSS and the cells were lifted from the plate by trypsinization. The dishes were examined for completeness of cell removal by examination with an inverted microscope. The cells were counted with a Zeiss microscope using a hemocytometer. Tumor cell population doubling time was determined by ploting the natural logarithm (ln) of the number of cells versus the days following plating. The slope of this line was determined using the Memorial Sloan-Kettering Cancer Center Clin computer system statistical analysis package. Doubling time (DT) was determined as ln 2/slope=DT. Statistical differences in cell number between groups were determined by Student's t statistic with the aid of the Memorial Sloan-Kettering Cancer Center Clin computer using the statistics program.
^a Thirty thousand PC3 cells were plated in 60mm^2 Petri dishes i
RPMI 164010% FCS. The next day the medium was aspirated and replaced with
RPMI 164010% FCS medium with 100 μM aminoguanidine with or without 1 m
DFMO. Fortyeight h later the medium was aspirated. […]

[2] = test system: normal rat prostate; assay: In vivo antiprostatic activity, prostate wet weight; conditions: Copenhagen rats
Method: 1-(4-aminobutyl) aziridine, difluoromethylornithine, and a combination of 1-(4-aminobutyl) aziridine and difluoromethylornithine were tested in vivo for antiprostatic activity using Copenhagen rats. The normal rat prostate is often used as a model or control for drugs which are suspected of having antiprostatic cancer activity. Sloan, et al., Cancer Chemother. Rep. 59: 185-194 (1975). 1-(4-aminobutyl) aziridine, difluoromethylornithine, and a combination of 1-(4-aminobutyl) aziridine and difluoromethylornithine were administered to twenty-eight (28) Copenhagen rats for 14 days. 1-(4-aminobutyl) aziridine was administered by an infusion mini-pump implanted intraperitoneally.
Difluoromethylornithine was administered orally. The 1-(4-aminobutyl) aziridine was delivered at a rate of 2 mg/kg/day. A similar amount of difluoromethylornithine was administered orally on a daily basis. Before loading the infusion pump, the pH of 1-(4-aminobutyl) aziridine was adjusted to 7.5 with hydrochloric acid. The pump rate was 0.5 u./hr.
The prostates of the twenty-eight (28) subjects were removed, freed of fat and weighed to the nearest milligram.

[3] = 2 h incubation, DFMO pretreated, day 8
[4] = 4 h incubation, DFMO pretreated, day 8
[5] = 14 days, AZP 2 mg/kg/day by intraperitoneal infusion mini-pump, DFMO similar amount orally

NCCCCN1CC1 [AZP, 1-(4-aminobutyl) aziridine]
Cell number as a percentage of the control mean cell number ([1]; 1 h incubation, DFMO pretreated, day 8): 73% | Cell no. ([1]; 1 h incubation, no DFMO (Control), day 8): 236 ± 8 × 10^-4 | Cell number as a percentage of the control mean cell number [1, 3]: 52% | Cell no. [1, 3]: 114 ± 10 × 10^-4 | Cell no. ([1]; 2 h incubation, no DFMO (Control), day 8): 202 ± 11 × 10^-4 | Cell number as a percentage of the control mean cell number [1, 4]: 32% | Cell no. [1, 4]: 70 ± 8 × 10^-4 | Cell number as a percentage of the control mean cell number ([1]; 8 h incubation, DFMO pretreated, day 8): ~9% | Cell no. ([1]; 8 h incubation, no DFMO (Control), day 8): 122 ± 16 × 10^-4 | Cell number as a percentage of the control mean cell number ([1]; 24 h incubation, DFMO pretreated, day 8): 0.9% | Cell no. ([1]; 24 h incubation, no DFMO (Control), day 8): 30 ± 11 × 10^-4 | Cell no. as a percentage of control ([1]; DFMO-pretreated PC-3 (1 mM, 48 h), single agent 1 h (Put 100 μM or AZP 10 μM), day 8): 9% | activity at 1 µM ([1]; read-out: Cell number as a percentage of the control mean cell number, 1 μM AZP, 1 h incubation, no DFMO (Control), day 8): 98% | activity at 1 µM ([1]; read-out: Cell number as a percentage of the control mean cell number, 1 μM AZP, 2 h incubation, no DFMO (Control), day 8): 84% | activity at 1 µM ([1]; read-out: Cell number as a percentage of the control mean cell number, 1 μM AZP, 4 h incubation, no DFMO (Control), day 8): 66% | activity at 1 µM ([1]; read-out: Cell number as a percentage of the control mean cell number, 1 μM AZP, 8 h incubation, no DFMO (Control), day 8): 51% | activity at 1 µM ([1]; read-out: Cell number as a percentage of the control mean cell number, 1 μM AZP, 24 h incubation, no DFMO (Control), day 8): ~12% | EC50 ([1]; read-out: 50% effective dose (cell growth), PC-3, 1 h exposure, counted 8 days after plating, 1 mM DFMO pretreatment 48 h): 2.1 µM | EC50 ([1]; read-out: 50% effective dose (cell growth), PC-3, 1 h exposure, counted 8 days after plating, without DFMO): 18 µM | Cells per dish on day 8 following plating ([1]; PC-3, 3×10^4 plated, ±1 mM DFMO 48 h, ±25 μM AZP 1 h, mean±SD of triplicates): 123±10 ×10^4 cells per dish | Doubling time ([1]; PC-3, 25 μM AZP 1 h or 1 mM DFMO 48 h, mean±SE): 1.53 ± 0.06 days | Growth-inhibitory activity toward PC-3 cells (in words) ([1]; brief 1-h exposure): definitely growth inhibitory | Reduction of the size of the normal ventral prostate ([2]; 2 mg/kg/day over a fourteen day period): approximately 67% | Animal toxicity (weight or fur loss, poor posture) ([2]; 2 mg/kg/day, 14 days): no evidence of animal toxicity | Organ toxicity on examination at sacrifice (liver, spleen, intestine, kidneys) ([2]; 2 mg/kg/day, 14 days): no other organs, e.g., liver, spleen, intestine, kidneys, demonstrated any evidence of toxicity | Effect on prostate size (in words) ([2]; 14 days): significantly decreased the size of the normal ventral prostates | Dorsal Lateral Prostate, milligram wet weight (SEM) [2, 5]: 474 ± 39 milligram | Ventral Prostate, milligram wet weight (SEM) [2, 5]: 378 ± 30 milligram
